Data: the NIST ThermoML archive (doi:10.1021/je700428f)
± gives the expanded uncertainty stated by the source.

Assay: xn = mol fraction of the nth substance listed
Conditions: 101 kPa, Liquid; for viscosity: Capillary tube (Ostwald / Ubbelohde) method

SMILES: CCCCCCCCC [nonane] + COC(C)(C)C
- viscosity (273.15 K, x2 = 0): 0.972 ± 0.01 mPa·s
- viscosity (273.15 K, x2 = 0.1006): 0.912 ± 0.01 mPa·s
- viscosity (273.15 K, x2 = 0.2026): 0.85 ± 0.01 mPa·s
- viscosity (273.15 K, x2 = 0.2995): 0.796 ± 0.01 mPa·s
- viscosity (273.15 K, x2 = 0.4045): 0.74 ± 0.009 mPa·s
- viscosity (273.15 K, x2 = 0.5003): 0.688 ± 0.009 mPa·s
- viscosity (273.15 K, x2 = 0.6035): 0.632 ± 0.009 mPa·s
- viscosity (273.15 K, x2 = 0.6998): 0.586 ± 0.009 mPa·s
- viscosity (273.15 K, x2 = 0.7975): 0.54 ± 0.009 mPa·s
- viscosity (273.15 K, x2 = 0.8971): 0.491 ± 0.009 mPa·s
- mass density (273.15 K, x2 = 0): 733.184 ± 0.57 kg/m3
- mass density (273.15 K, x2 = 0.1085): 734.69 ± 0.57 kg/m3
- mass density (273.15 K, x2 = 0.1722): 735.67 ± 0.57 kg/m3
- mass density (273.15 K, x2 = 0.3037): 737.89 ± 0.56 kg/m3
- mass density (273.15 K, x2 = 0.4011): 739.94 ± 0.55 kg/m3
- mass density (273.15 K, x2 = 0.5008): 742.31 ± 0.55 kg/m3
- mass density (273.15 K, x2 = 0.6005): 745.08 ± 0.54 kg/m3
- mass density (273.15 K, x2 = 0.6992): 748.17 ± 0.54 kg/m3
- mass density (273.15 K, x2 = 0.8005): 751.89 ± 0.54 kg/m3
- mass density (273.15 K, x2 = 0.8925): 755.81 ± 0.54 kg/m3
- viscosity (278.15 K, x2 = 0): 0.896 ± 0.01 mPa·s
- viscosity (278.15 K, x2 = 0.1006): 0.842 ± 0.01 mPa·s
- viscosity (278.15 K, x2 = 0.2026): 0.787 ± 0.01 mPa·s
- viscosity (278.15 K, x2 = 0.2995): 0.738 ± 0.009 mPa·s
- viscosity (278.15 K, x2 = 0.4045): 0.689 ± 0.009 mPa·s
- viscosity (278.15 K, x2 = 0.5003): 0.641 ± 0.009 mPa·s
- viscosity (278.15 K, x2 = 0.6035): 0.591 ± 0.009 mPa·s
- viscosity (278.15 K, x2 = 0.6998): 0.549 ± 0.009 mPa·s
- viscosity (278.15 K, x2 = 0.7975): 0.505 ± 0.009 mPa·s
- viscosity (278.15 K, x2 = 0.8971): 0.46 ± 0.009 mPa·s
- mass density (278.15 K, x2 = 0): 729.335 ± 0.58 kg/m3
- mass density (278.15 K, x2 = 0.1085): 730.78 ± 0.57 kg/m3
- mass density (278.15 K, x2 = 0.1722): 731.71 ± 0.57 kg/m3
- mass density (278.15 K, x2 = 0.3037): 733.82 ± 0.56 kg/m3
- mass density (278.15 K, x2 = 0.4011): 735.78 ± 0.56 kg/m3
- mass density (278.15 K, x2 = 0.5008): 738.04 ± 0.55 kg/m3
- mass density (278.15 K, x2 = 0.6005): 740.68 ± 0.55 kg/m3
- mass density (278.15 K, x2 = 0.6992): 743.64 ± 0.55 kg/m3
- mass density (278.15 K, x2 = 0.8005): 747.2 ± 0.54 kg/m3
- mass density (278.15 K, x2 = 0.8925): 750.95 ± 0.55 kg/m3
- viscosity (283.15 K, x2 = 0): 0.828 ± 0.01 mPa·s
- viscosity (283.15 K, x2 = 0.1006): 0.78 ± 0.01 mPa·s
- viscosity (283.15 K, x2 = 0.2026): 0.731 ± 0.009 mPa·s
- viscosity (283.15 K, x2 = 0.2995): 0.687 ± 0.009 mPa·s
- viscosity (283.15 K, x2 = 0.4045): 0.643 ± 0.009 mPa·s
- viscosity (283.15 K, x2 = 0.5003): 0.598 ± 0.009 mPa·s
- viscosity (283.15 K, x2 = 0.6035): 0.554 ± 0.009 mPa·s
- viscosity (283.15 K, x2 = 0.6998): 0.514 ± 0.009 mPa·s
- viscosity (283.15 K, x2 = 0.7975): 0.474 ± 0.009 mPa·s
- viscosity (283.15 K, x2 = 0.8971): 0.433 ± 0.009 mPa·s
- mass density (283.15 K, x2 = 0): 725.473 ± 0.59 kg/m3
- mass density (283.15 K, x2 = 0.1085): 726.84 ± 0.58 kg/m3
- mass density (283.15 K, x2 = 0.1722): 727.73 ± 0.58 kg/m3
- mass density (283.15 K, x2 = 0.3037): 729.73 ± 0.57 kg/m3
- mass density (283.15 K, x2 = 0.4011): 731.59 ± 0.56 kg/m3
- mass density (283.15 K, x2 = 0.5008): 733.74 ± 0.56 kg/m3
- mass density (283.15 K, x2 = 0.6005): 736.26 ± 0.55 kg/m3
- mass density (283.15 K, x2 = 0.6992): 739.08 ± 0.55 kg/m3
- mass density (283.15 K, x2 = 0.8005): 742.47 ± 0.55 kg/m3
- mass density (283.15 K, x2 = 0.8925): 746.06 ± 0.55 kg/m3
- viscosity (288.15 K, x2 = 0): 0.768 ± 0.009 mPa·s
- viscosity (288.15 K, x2 = 0.1006): 0.726 ± 0.009 mPa·s
- viscosity (288.15 K, x2 = 0.2026): 0.681 ± 0.009 mPa·s
- viscosity (288.15 K, x2 = 0.2995): 0.641 ± 0.009 mPa·s
- viscosity (288.15 K, x2 = 0.4045): 0.6 ± 0.009 mPa·s
- viscosity (288.15 K, x2 = 0.5003): 0.56 ± 0.009 mPa·s
- viscosity (288.15 K, x2 = 0.6035): 0.52 ± 0.009 mPa·s
- viscosity (288.15 K, x2 = 0.6998): 0.484 ± 0.009 mPa·s
- viscosity (288.15 K, x2 = 0.7975): 0.446 ± 0.009 mPa·s
- viscosity (288.15 K, x2 = 0.8971): 0.407 ± 0.009 mPa·s
- mass density (288.15 K, x2 = 0): 721.603 ± 0.59 kg/m3
- mass density (288.15 K, x2 = 0.1085): 722.9 ± 0.59 kg/m3
- mass density (288.15 K, x2 = 0.1722): 723.73 ± 0.58 kg/m3
- mass density (288.15 K, x2 = 0.3037): 725.62 ± 0.57 kg/m3
- mass density (288.15 K, x2 = 0.4011): 727.39 ± 0.57 kg/m3
- mass density (288.15 K, x2 = 0.5008): 729.43 ± 0.56 kg/m3
- mass density (288.15 K, x2 = 0.6005): 731.81 ± 0.56 kg/m3
- mass density (288.15 K, x2 = 0.6992): 734.49 ± 0.56 kg/m3
- mass density (288.15 K, x2 = 0.8005): 737.72 ± 0.55 kg/m3
- mass density (288.15 K, x2 = 0.8925): 741.13 ± 0.56 kg/m3
- viscosity (293.15 K, x2 = 0): 0.716 ± 0.009 mPa·s
- viscosity (293.15 K, x2 = 0.1006): 0.677 ± 0.009 mPa·s
- viscosity (293.15 K, x2 = 0.2026): 0.637 ± 0.009 mPa·s
- viscosity (293.15 K, x2 = 0.2995): 0.601 ± 0.009 mPa·s
- viscosity (293.15 K, x2 = 0.4045): 0.564 ± 0.009 mPa·s
- viscosity (293.15 K, x2 = 0.5003): 0.526 ± 0.009 mPa·s
- viscosity (293.15 K, x2 = 0.6035): 0.489 ± 0.009 mPa·s
- viscosity (293.15 K, x2 = 0.6998): 0.455 ± 0.009 mPa·s
- viscosity (293.15 K, x2 = 0.7975): 0.418 ± 0.009 mPa·s
- viscosity (293.15 K, x2 = 0.8971): 0.384 ± 0.009 mPa·s
- mass density (293.15 K, x2 = 0): 717.725 ± 0.6 kg/m3
- mass density (293.15 K, x2 = 0.1085): 718.92 ± 0.59 kg/m3
- mass density (293.15 K, x2 = 0.1722): 719.72 ± 0.59 kg/m3
- mass density (293.15 K, x2 = 0.3037): 721.51 ± 0.58 kg/m3
- mass density (293.15 K, x2 = 0.4011): 723.16 ± 0.57 kg/m3
- mass density (293.15 K, x2 = 0.5008): 725.09 ± 0.57 kg/m3
- mass density (293.15 K, x2 = 0.6005): 727.34 ± 0.57 kg/m3
- mass density (293.15 K, x2 = 0.6992): 729.87 ± 0.56 kg/m3
- mass density (293.15 K, x2 = 0.8005): 732.94 ± 0.56 kg/m3
- mass density (293.15 K, x2 = 0.8925): 736.17 ± 0.56 kg/m3
- viscosity (298.15 K, x2 = 0): 0.669 ± 0.009 mPa·s
- viscosity (298.15 K, x2 = 0.1006): 0.634 ± 0.009 mPa·s
- viscosity (298.15 K, x2 = 0.2026): 0.598 ± 0.009 mPa·s
- viscosity (298.15 K, x2 = 0.2995): 0.564 ± 0.009 mPa·s
- viscosity (298.15 K, x2 = 0.4045): 0.529 ± 0.009 mPa·s
- viscosity (298.15 K, x2 = 0.5003): 0.496 ± 0.009 mPa·s
- viscosity (298.15 K, x2 = 0.6035): 0.461 ± 0.009 mPa·s
- viscosity (298.15 K, x2 = 0.6998): 0.43 ± 0.009 mPa·s
- viscosity (298.15 K, x2 = 0.7975): 0.396 ± 0.009 mPa·s
- viscosity (298.15 K, x2 = 0.8971): 0.363 ± 0.009 mPa·s
- mass density (298.15 K, x2 = 0): 713.834 ± 0.6 kg/m3
- mass density (298.15 K, x2 = 0.1085): 714.95 ± 0.6 kg/m3
- mass density (298.15 K, x2 = 0.1722): 715.7 ± 0.59 kg/m3
- mass density (298.15 K, x2 = 0.3037): 717.36 ± 0.59 kg/m3
- mass density (298.15 K, x2 = 0.4011): 718.92 ± 0.58 kg/m3
- mass density (298.15 K, x2 = 0.5008): 720.73 ± 0.58 kg/m3
- mass density (298.15 K, x2 = 0.6005): 722.84 ± 0.57 kg/m3
- mass density (298.15 K, x2 = 0.6992): 725.22 ± 0.57 kg/m3
- mass density (298.15 K, x2 = 0.8005): 728.11 ± 0.57 kg/m3
- mass density (298.15 K, x2 = 0.8925): 731.18 ± 0.57 kg/m3
- viscosity (303.15 K, x2 = 0): 0.628 ± 0.009 mPa·s
- viscosity (303.15 K, x2 = 0.1006): 0.596 ± 0.009 mPa·s
- viscosity (303.15 K, x2 = 0.2026): 0.563 ± 0.009 mPa·s
- viscosity (303.15 K, x2 = 0.2995): 0.532 ± 0.009 mPa·s
- viscosity (303.15 K, x2 = 0.4045): 0.498 ± 0.009 mPa·s
- viscosity (303.15 K, x2 = 0.5003): 0.468 ± 0.009 mPa·s
- viscosity (303.15 K, x2 = 0.6035): 0.436 ± 0.009 mPa·s
- viscosity (303.15 K, x2 = 0.6998): 0.408 ± 0.009 mPa·s
- viscosity (303.15 K, x2 = 0.7975): 0.377 ± 0.009 mPa·s
- mass density (303.15 K, x2 = 0): 709.929 ± 0.61 kg/m3
- mass density (303.15 K, x2 = 0.1085): 710.96 ± 0.6 kg/m3
- mass density (303.15 K, x2 = 0.1722): 711.66 ± 0.6 kg/m3
- mass density (303.15 K, x2 = 0.3037): 713.21 ± 0.59 kg/m3
- mass density (303.15 K, x2 = 0.4011): 714.65 ± 0.59 kg/m3
- mass density (303.15 K, x2 = 0.5008): 716.34 ± 0.58 kg/m3
- mass density (303.15 K, x2 = 0.6005): 718.32 ± 0.58 kg/m3
- mass density (303.15 K, x2 = 0.6992): 720.55 ± 0.57 kg/m3
- mass density (303.15 K, x2 = 0.8005): 723.25 ± 0.57 kg/m3
- mass density (303.15 K, x2 = 0.8925): 726.13 ± 0.57 kg/m3
- viscosity (308.15 K, x2 = 0): 0.59 ± 0.009 mPa·s
- viscosity (308.15 K, x2 = 0.1006): 0.56 ± 0.009 mPa·s
- viscosity (308.15 K, x2 = 0.2026): 0.531 ± 0.009 mPa·s
- viscosity (308.15 K, x2 = 0.2995): 0.502 ± 0.009 mPa·s
- viscosity (308.15 K, x2 = 0.4045): 0.47 ± 0.009 mPa·s
- viscosity (308.15 K, x2 = 0.5003): 0.443 ± 0.009 mPa·s
- viscosity (308.15 K, x2 = 0.6035): 0.413 ± 0.009 mPa·s
